Test results: paper PMC5224920, “Assessing the mechanism and therapeutic potential of modulators of the human Mediator complex-associated protein kinases” (eLife, 2016)

Tested on: 12 single or co-culture in vitro tissue models of primary cells
Assay: Culture/co-culture cell model panel, extracellular biomarkers (DiscoveRx); as to CCL2/MCP-1: reference of the scale not given here; as to CXCL8/IL-8: reference of the scale not given here; as to CXCL9/MIG: reference of the scale not given here; as to M-CSF: reference of the scale not given here; as to SRB: reference of the scale not given here
Assay type: cell-based, human
[1] = /HDFNo unstimulated fibroblasts, 1.00E4 nM
[2] = /HDFNo unstimulated fibroblasts, 1.11E3 nM
[3] = /HDFNo unstimulated fibroblasts, 1.23E2 nM
[4] = /HDFNo unstimulated fibroblasts, 1.37E1 nM
[5] = /HDFNo unstimulated fibroblasts, 3.33E3 nM
[6] = /HDFNo unstimulated fibroblasts, 3.70E2 nM
[7] = /HDFNo unstimulated fibroblasts, 4.12E1 nM
[8] = /HDFNo unstimulated fibroblasts, 4.57E0 nM

In the case of `Cc1n[nH]c2ncc(C(=O)N3CCC[C@H]3c3ccc(Cl)cc3)cc12` [CMPD4], the M-CSF (/HDF3CT, 3.70E2 nM) is reported as -0.052, the MMP-1 (/HDF3CT, 3.70E2 nM) is reported as -0.021 and the PAI-I (/HDF3CT, 3.70E2 nM) is reported as -0.054. It also gave an SRB (/HDF3CT, 3.70E2 nM) of 0.014, a TIMP-2 (/HDF3CT, 3.70E2 nM) of 0.055 and a CCL2/MCP-1 (/HDF3CT, 4.12E1 nM) of -0.025. For the same compound, the CD54/ICAM-1 (/HDF3CT, 4.12E1 nM) was -0.054, the CD106/VCAM-1 (/HDF3CT, 4.12E1 nM) was 0.009 and the CXCL8/IL-8 (/HDF3CT, 4.12E1 nM) was -0.089. The CXCL9/MIG (/HDF3CT, 4.12E1 nM) was -0.015, the CXCL10/IP-10 (/HDF3CT, 4.12E1 nM) was 0.023 and the “Collagen I” value (/HDF3CT, 4.12E1 nM) was -0.036. It also gave a M-CSF (/HDF3CT, 4.12E1 nM) of -0.072, an MMP-1 (/HDF3CT, 4.12E1 nM) of 0.049 and a PAI-I (/HDF3CT, 4.12E1 nM) of -0.006. For the same compound, the SRB (/HDF3CT, 4.12E1 nM) was 0.013, the TIMP-2 (/HDF3CT, 4.12E1 nM) was 0.105 and the CCL2/MCP-1 (/HDF3CT, 4.57E0 nM) was 0.071. For the same compound, the CD54/ICAM-1 (/HDF3CT, 4.57E0 nM) was -0.030, the CD106/VCAM-1 (/HDF3CT, 4.57E0 nM) was 0.022 and the CXCL8/IL-8 (/HDF3CT, 4.57E0 nM) was -0.033. The CXCL9/MIG (/HDF3CT, 4.57E0 nM) was 0.019, the CXCL10/IP-10 (/HDF3CT, 4.57E0 nM) was 0.003 and the “Collagen I” value (/HDF3CT, 4.57E0 nM) was 0.009. For the same compound, the M-CSF (/HDF3CT, 4.57E0 nM) was -0.072, the MMP-1 (/HDF3CT, 4.57E0 nM) was 0.086 and the PAI-I (/HDF3CT, 4.57E0 nM) was 0.017. It also gave an SRB (/HDF3CT, 4.57E0 nM) of 0.023, a TIMP-2 (/HDF3CT, 4.57E0 nM) of 0.088 and a CXCL8/IL-8 [1] of 0.032. The CXCL9/MIG [1] was 0.127, the CXCL10/IP-10 [1] was 0.013 and the CXCL11/I-TAC [1] was -0.046. It also gave an EGFR [1] of 0.051, a M-CSF [1] of 0.0038 and an MMP-1 [1] of -0.013. For the same compound, the PAI-I [1] was -0.051, the Proliferation_72hr [1] was 0.179 and the SRB [1] was 0.000631. It also gave a TIMP-1 [1] of 0.019, a TIMP-2 [1] of -0.228 and a CXCL8/IL-8 [2] of -0.076. The CXCL9/MIG [2] was -0.081, the CXCL10/IP-10 [2] was -0.021 and the CXCL11/I-TAC [2] was -0.035. For the same compound, the EGFR [2] was -0.009, the M-CSF [2] was -0.068 and the MMP-1 [2] was -0.043. It also gave a PAI-I [2] of -0.052, a Proliferation_72hr [2] of 0.134 and an SRB [2] of 0.024. For the same compound, the TIMP-1 [2] was 0.00471, the TIMP-2 [2] was -0.013 and the CXCL8/IL-8 [3] was -0.103. For the same compound, the CXCL9/MIG [3] was -0.075, the CXCL10/IP-10 [3] was -0.039 and the CXCL11/I-TAC [3] was -0.045. It also gave an EGFR [3] of -0.011, a M-CSF [3] of 0.013 and an MMP-1 [3] of -0.032. It also gave a PAI-I [3] of 0.00163, a Proliferation_72hr [3] of 0.087 and an SRB [3] of 0.010. It also gave a TIMP-1 [3] of -0.034, a TIMP-2 [3] of 0.076 and a CXCL8/IL-8 [4] of -0.022. The CXCL9/MIG [4] was -0.044, the CXCL10/IP-10 [4] was -0.0053 and the CXCL11/I-TAC [4] was -0.037. For the same compound, the EGFR [4] was 0.035, the M-CSF [4] was 0.000135 and the MMP-1 [4] was -0.004. The PAI-I [4] was -0.012, the Proliferation_72hr [4] was 0.060 and the SRB [4] was 0.007. It also gave a TIMP-1 [4] of 0.000829, a TIMP-2 [4] of 0.075 and a CXCL8/IL-8 [5] of -0.039. For the same compound, the CXCL9/MIG [5] was -0.027, the CXCL10/IP-10 [5] was -0.048 and the CXCL11/I-TAC [5] was -0.031. It also gave an EGFR [5] of 0.046, a M-CSF [5] of -0.016 and an MMP-1 [5] of -0.033. For the same compound, the PAI-I [5] was -0.029, the Proliferation_72hr [5] was 0.157 and the SRB [5] was 0.00444. It also gave a TIMP-1 [5] of 0.014, a TIMP-2 [5] of -0.121 and a CXCL8/IL-8 [6] of -0.076. For the same compound, the CXCL9/MIG [6] was -0.059, the CXCL10/IP-10 [6] was -0.040 and the CXCL11/I-TAC [6] was -0.00462. The EGFR [6] was -0.018, the M-CSF [6] was -0.00531 and the MMP-1 [6] was -0.010. The PAI-I [6] was -0.018, the Proliferation_72hr [6] was 0.139 and the SRB [6] was 0.020. For the same compound, the TIMP-1 [6] was 0.003, the TIMP-2 [6] was 0.082 and the CXCL8/IL-8 [7] was -0.024. It also gave a CXCL9/MIG [7] of -0.065, a CXCL10/IP-10 [7] of -0.026 and a CXCL11/I-TAC [7] of -0.032. For the same compound, the EGFR [7] was 0.00663, the M-CSF [7] was -0.024 and the MMP-1 [7] was -0.026. It also gave a PAI-I [7] of -0.010, a Proliferation_72hr [7] of 0.102 and an SRB [7] of 0.013. It also gave a TIMP-1 [7] of -0.020, a TIMP-2 [7] of 0.059 and a CXCL8/IL-8 [8] of 0.034. For the same compound, the CXCL9/MIG [8] was 0.056, the CXCL10/IP-10 [8] was 0.00467 and the CXCL11/I-TAC [8] was -0.00186. The EGFR [8] was 0.019, the M-CSF [8] was -0.012 and the MMP-1 [8] was 0.055. It also gave a PAI-I [8] of 0.075, a Proliferation_72hr [8] of 0.072 and an SRB [8] of 0.043. It also gave a TIMP-1 [8] of 0.048, a TIMP-2 [8] of -0.057 and a CCL2/MCP-1 (/HDFNo, 1.00E4 nM) of 0.040. For the same compound, the CD54/ICAM-1 (/HDFNo, 1.00E4 nM) was 0.094, the CD106/VCAM-1 (/HDFNo, 1.00E4 nM) was 0.027 and the “Collagen I” value (/HDFNo, 1.00E4 nM) was 0.067. The “Collagen III” value (/HDFNo, 1.00E4 nM) was -0.015, the CCL2/MCP-1 (/HDFNo, 1.11E3 nM) was 0.00326 and the CD54/ICAM-1 (/HDFNo, 1.11E3 nM) was -0.048. The CD106/VCAM-1 (/HDFNo, 1.11E3 nM) was -0.067, the “Collagen I” value (/HDFNo, 1.11E3 nM) was -0.022 and the “Collagen III” value (/HDFNo, 1.11E3 nM) was 0.013. For the same compound, the CCL2/MCP-1 (/HDFNo, 1.23E2 nM) was -0.009, the CD54/ICAM-1 (/HDFNo, 1.23E2 nM) was -0.013 and the CD106/VCAM-1 (/HDFNo, 1.23E2 nM) was -0.096. The “Collagen I” value (/HDFNo, 1.23E2 nM) was -0.065, the “Collagen III” value (/HDFNo, 1.23E2 nM) was 0.012 and the CCL2/MCP-1 (/HDFNo, 1.37E1 nM) was -0.022. The CD54/ICAM-1 (/HDFNo, 1.37E1 nM) was -0.024, the CD106/VCAM-1 (/HDFNo, 1.37E1 nM) was 0.020 and the “Collagen I” value (/HDFNo, 1.37E1 nM) was -0.080. The “Collagen III” value (/HDFNo, 1.37E1 nM) was 0.026, the CCL2/MCP-1 (/HDFNo, 3.33E3 nM) was -0.021 and the CD54/ICAM-1 (/HDFNo, 3.33E3 nM) was -0.005. The CD106/VCAM-1 (/HDFNo, 3.33E3 nM) was -0.034, the “Collagen I” value (/HDFNo, 3.33E3 nM) was -0.014 and the “Collagen III” value (/HDFNo, 3.33E3 nM) was 0.025. For the same compound, the CCL2/MCP-1 (/HDFNo, 3.70E2 nM) was -0.005, the CD54/ICAM-1 (/HDFNo, 3.70E2 nM) was -0.029 and the CD106/VCAM-1 (/HDFNo, 3.70E2 nM) was -0.058. For the same compound, the “Collagen I” value (/HDFNo, 3.70E2 nM) was -0.055, the “Collagen III” value (/HDFNo, 3.70E2 nM) was 0.000891 and the CCL2/MCP-1 (/HDFNo, 4.12E1 nM) was 0.007. For the same compound, the CD54/ICAM-1 (/HDFNo, 4.12E1 nM) was -0.036, the CD106/VCAM-1 (/HDFNo, 4.12E1 nM) was -0.047 and the “Collagen I” value (/HDFNo, 4.12E1 nM) was -0.086. The “Collagen III” value (/HDFNo, 4.12E1 nM) was 0.030, the CCL2/MCP-1 (/HDFNo, 4.57E0 nM) was 0.025 and the CD54/ICAM-1 (/HDFNo, 4.57E0 nM) was 0.028. The CD106/VCAM-1 (/HDFNo, 4.57E0 nM) was 0.010.
